# Source: article PMC5218480 (PLoS ONE, 2017)
# Test system: MV-4-11 cells
# Test: Gene expression microarray analysis (Affymetrix PrimeView) and GSEA
# Assay type: cell-based, human
# Design: RFU PODN (11730768_x_at) / Fold change /veh PODN (11730768_x_at) / RFU LINC00158 (11744669_a_at) / Fold change /veh LINC00158 (11744669_a_at) / RFU DUSP10 (11751237_a_at) / Fold change /veh DUSP10 (11751237_a_at) / RFU ID3 (11757404_x_at) / Fold change /veh ID3 (11757404_x_at) / RFU PLEKHG5 (11737974_s_at) / Fold change /veh PLEKHG5 (11737974_s_at) / RFU LRRC4B (11730491_at) / Fold change /veh LRRC4B (11730491_at) / RFU GIMAP4 (11747438_a_at) / Fold change /veh GIMAP4 (11747438_a_at) / RFU KRT8 (11758183_x_at) / Fold change /veh KRT8 (11758183_x_at) / RFU CNN1 (11734310_a_at) / Fold change /veh CNN1 (11734310_a_at) / RFU VPS37D (11726825_at) / Fold change /veh VPS37D (11726825_at) / RFU C10orf10 (11716522_x_at) / Fold change /veh C10orf10 (11716522_x_at) / RFU KIR2DL2 /// KIR2DL4 /// KIR2DL5A /// KIR2DL5B /// KIR2DS1 /// KIR2DS2 /// KIR2DS3 /// KIR2DS4 /// KIR3DL3 /// KIR3DL3 /// KIR3DS1 (11738374_at) / Fold change /veh KIR2DL2 /// KIR2DL4 /// KIR2DL5A /// KIR2DL5B /// KIR2DS1 /// KIR2DS2 /// KIR2DS3 /// KIR2DS4 /// KIR3DL3 /// KIR3DL3 /// KIR3DS1 (11738374_at) / RFU C1QL1 (11718748_at) / Fold change /veh C1QL1 (11718748_at) / RFU TMPRSS4 (11747572_a_at) / Fold change /veh TMPRSS4 (11747572_a_at) / RFU HAMP (11756126_x_at) / Fold change /veh HAMP (11756126_x_at) / RFU RNFT2 (11725882_a_at) / Fold change /veh RNFT2 (11725882_a_at) / RFU NR4A2 (11747474_a_at) / Fold change /veh NR4A2 (11747474_a_at) / RFU ABCC12 (11746883_a_at) / Fold change /veh ABCC12 (11746883_a_at) / RFU TMEM136 (11760407_x_at) / Fold change /veh TMEM136 (11760407_x_at) / RFU CLDN22 /// WWC2 (11732394_at) / Fold change /veh CLDN22 /// WWC2 (11732394_at) / RFU HLA-DPB1 (11760878_x_at) / Fold change /veh HLA-DPB1 (11760878_x_at) / RFU SPINT1 (11716480_a_at) / Fold change /veh SPINT1 (11716480_a_at) / RFU GAP43 (11754022_s_at) / Fold change /veh GAP43 (11754022_s_at) / RFU A4GNT (11735810_at) / Fold change /veh A4GNT (11735810_at) / RFU PRB3 (11715151_x_at) / Fold change /veh PRB3 (11715151_x_at) / RFU TUBB4B (11761932_at) / Fold change /veh TUBB4B (11761932_at) / RFU CAPN14 (11732068_a_at) / Fold change /veh CAPN14 (11732068_a_at) / RFU TMCC2 (11721928_a_at) / Fold change /veh TMCC2 (11721928_a_at) / RFU IRGQ (11745062_a_at) / Fold change /veh IRGQ (11745062_a_at) / RFU FAM174B (11720279_a_at) / Fold change /veh FAM174B (11720279_a_at) / RFU TMPRSS4 (11748680_a_at) / Fold change /veh TMPRSS4 (11748680_a_at) / RFU FAM212B (11763350_a_at) / Fold change /veh FAM212B (11763350_a_at) / RFU PLEKHG5 (11743358_a_at) / Fold change /veh PLEKHG5 (11743358_a_at) / RFU ZSCAN30 (11745921_a_at) / Fold change /veh ZSCAN30 (11745921_a_at) / RFU CMKLR1 (11741424_a_at) / Fold change /veh CMKLR1 (11741424_a_at) / RFU LOC101060620 /// MAPK8IP1 (11723275_at) / Fold change /veh LOC101060620 /// MAPK8IP1 (11723275_at) / RFU SPTSSB (11747773_x_at) / Fold change /veh SPTSSB (11747773_x_at) / RFU PRSS12 (11739890_at) / Fold change /veh PRSS12 (11739890_at) / RFU BIN1 (11741810_x_at) / Fold change /veh BIN1 (11741810_x_at) / RFU WNT11 (11732464_a_at) / Fold change /veh WNT11 (11732464_a_at) / RFU C10orf10 (11716521_a_at) / Fold change /veh C10orf10 (11716521_a_at) / RFU C5orf56 (11738089_at) / Fold change /veh C5orf56 (11738089_at) / RFU CYB561 (11721691_x_at) / Fold change /veh CYB561 (11721691_x_at) / RFU ANKRD19P (11752326_a_at) / Fold change /veh ANKRD19P (11752326_a_at) / RFU OR2T12 /// OR2T33 /// OR2T8 (11738714_s_at) / Fold change /veh OR2T12 /// OR2T33 /// OR2T8 (11738714_s_at) / RFU VCAN (11748164_a_at) / Fold change /veh VCAN (11748164_a_at) / RFU JSRP1 (11732532_at) / Fold change /veh JSRP1 (11732532_at) / RFU KRTAP10-11 (11738290_x_at) / Fold change /veh KRTAP10-11 (11738290_x_at) / RFU MYO3A (11730013_a_at) / Fold change /veh MYO3A (11730013_a_at) / RFU EBF3 (11725865_a_at) / Fold change /veh EBF3 (11725865_a_at) / RFU CAMK2N1 (11719241_x_at) / Fold change /veh CAMK2N1 (11719241_x_at) / RFU C5orf56 (11738088_a_at) / Fold change /veh C5orf56 (11738088_a_at) / RFU OLFML3 (11715873_a_at) / Fold change /veh OLFML3 (11715873_a_at) / RFU LOC100653217 /// NTM (11731650_a_at) / Fold change /veh LOC100653217 /// NTM (11731650_a_at) / RFU MAPK11 (11762145_a_at) / Fold change /veh MAPK11 (11762145_a_at) / RFU FIZ1 (11724087_x_at) / Fold change /veh FIZ1 (11724087_x_at) / RFU OASL (11726364_x_at) / Fold change /veh OASL (11726364_x_at) / RFU SOX15 (11748057_x_at) / Fold change /veh SOX15 (11748057_x_at) / RFU CD79A (11719716_a_at) / Fold change /veh CD79A (11719716_a_at) / RFU HIST1H1D (11736915_at) / Fold change /veh HIST1H1D (11736915_at) / RFU CASKIN2 (11723855_a_at) / Fold change /veh CASKIN2 (11723855_a_at) / RFU LOC730098 (11760151_x_at) / Fold change /veh LOC730098 (11760151_x_at) / RFU OR4N2 (11742367_at) / Fold change /veh OR4N2 (11742367_at) / RFU PRRT2 (11749266_a_at) / Fold change /veh PRRT2 (11749266_a_at) / RFU SNX32 (11753110_a_at) / Fold change /veh SNX32 (11753110_a_at) / RFU CDHR5 (11726645_a_at) / Fold change /veh CDHR5 (11726645_a_at) / RFU RCAN1 (11760418_a_at) / Fold change /veh RCAN1 (11760418_a_at) / RFU FAM167A (11723789_a_at) / Fold change /veh FAM167A (11723789_a_at) / RFU FAM26E (11764081_at) / Fold change /veh FAM26E (11764081_at) / RFU ISYNA1 (11749810_s_at) / Fold change /veh ISYNA1 (11749810_s_at) / RFU ACY1 (11761880_at) / Fold change /veh ACY1 (11761880_at) / RFU 11764098_at / Fold change /veh 11764098_at / RFU SAMD14 (11745864_x_at) / Fold change /veh SAMD14 (11745864_x_at) / RFU NPB (11741838_a_at) / Fold change /veh NPB (11741838_a_at) / RFU TMPRSS6 (11731388_a_at) / Fold change /veh TMPRSS6 (11731388_a_at) / RFU KRTAP10-2 (11738614_at) / Fold change /veh KRTAP10-2 (11738614_at) / RFU ARHGAP8 /// PRR5-ARHGAP8 (11727945_x_at) / Fold change /veh ARHGAP8 /// PRR5-ARHGAP8 (11727945_x_at) / RFU KRTAP5-7 /// NADSYN1 (11734609_at) / Fold change /veh KRTAP5-7 /// NADSYN1 (11734609_at) / RFU RASL12 (11751679_a_at) / Fold change /veh RASL12 (11751679_a_at) / RFU CDKN2B (11736163_a_at) / Fold change /veh CDKN2B (11736163_a_at) / RFU PRF1 (11729649_at) / Fold change /veh PRF1 (11729649_at) / RFU, ZNF638 /// ZNF638-IT1 / Fold change vs veh, ZNF638 /// ZNF638-IT1 / RFU, PANK3 / Fold change vs veh, PANK3 / RFU, SH3YL1 / Fold change vs veh, SH3YL1 / RFU, ZEB2 / Fold change vs veh, ZEB2 / RFU, NRIP1 / Fold change vs veh, NRIP1 / RFU, PTTG1IP / Fold change vs veh, PTTG1IP / RFU, CAPN2 / Fold change vs veh, CAPN2 / RFU, MED14 / Fold change vs veh, MED14 / RFU, SNORA58 / Fold change vs veh, SNORA58 / RFU, C1orf63 / Fold change vs veh, C1orf63 / RFU, LRRFIP1 / Fold change vs veh, LRRFIP1 / RFU, NDUFAF7 / Fold change vs veh, NDUFAF7 / RFU, SLC12A2 / Fold change vs veh, SLC12A2 / RFU, IBTK / Fold change vs veh, IBTK / RFU, ESF1 / Fold change vs veh, ESF1 / Fold change vs veh, TMEM50B / RFU, TAOK1 / Fold change vs veh, TAOK1 / RFU, ACBD3 / Fold change vs veh, ACBD3 / RFU, TMA16 / Fold change vs veh, TMA16 / RFU, RWDD3 / Fold change vs veh, RWDD3 / RFU, BCAT1 / Fold change vs veh, BCAT1 / RFU, EDEM3 / Fold change vs veh, EDEM3 / RFU, TMEM33 / Fold change vs veh, TMEM33 / RFU, WDR75 / Fold change vs veh, WDR75 / RFU, AHCTF1 / Fold change vs veh, AHCTF1 / RFU, TFRC / Fold change vs veh, TFRC / RFU, ZDHHC17 / Fold change vs veh, ZDHHC17 / RFU, NOM1 / Fold change vs veh, NOM1 / RFU, ARL8B / Fold change vs veh, ARL8B / RFU, ZBTB11 / Fold change vs veh, ZBTB11 / RFU, TAMM41 / Fold change vs veh, TAMM41 / RFU, KIAA1704 /// LOC100996395 / Fold change vs veh, KIAA1704 /// LOC100996395 / RFU, ING1 / Fold change vs veh, ING1 / RFU, TRMT61B / Fold change vs veh, TRMT61B / RFU, FUBP3 / Fold change vs veh, FUBP3 / RFU, TP53 / Fold change vs veh, TP53 / RFU, TNKS2 / Fold change vs veh, TNKS2 / RFU, ZFP14 / Fold change vs veh, ZFP14 / RFU, ACTR2 / Fold change vs veh, ACTR2 / RFU, PPP3R1 / Fold change vs veh, PPP3R1 / RFU, PIK3R1 / Fold change vs veh, PIK3R1 / RFU, HNRNPA1 / Fold change vs veh, HNRNPA1 / RFU, RNF170 / Fold change vs veh, RNF170 / RFU, ZNF28 / Fold change vs veh, ZNF28 / RFU, RNGTT / Fold change vs veh, RNGTT / RFU, OGT / Fold change vs veh, OGT / RFU, BRD1 / Fold change vs veh, BRD1 / RFU, MARS / Fold change vs veh, MARS / RFU, ZNF655 / Fold change vs veh, ZNF655 / RFU, FAHD1 / Fold change vs veh, FAHD1 / RFU, BDP1 / Fold change vs veh, BDP1 / RFU, LRRCC1 / Fold change vs veh, LRRCC1 / RFU, ARID1A / Fold change vs veh, ARID1A / RFU, ZNF146 / Fold change vs veh, ZNF146 / RFU, ZNF330 / Fold change vs veh, ZNF330 / RFU, GPN3 / Fold change vs veh, GPN3 / RFU, C9orf123 / Fold change vs veh, C9orf123 / RFU, N4BP2L2 / Fold change vs veh, N4BP2L2 / RFU, ARFIP1 / Fold change vs veh, ARFIP1 / RFU, FAM179B / Fold change vs veh, FAM179B / RFU, BCL10 / Fold change vs veh, BCL10 / RFU, UHRF1BP1L / Fold change vs veh, UHRF1BP1L / RFU, BET1 / Fold change vs veh, BET1 / RFU, CNOT2 / Fold change vs veh, CNOT2 / RFU, ZNF268 / Fold change vs veh, ZNF268 / Fold change vs veh, ZNF507 / RFU, DGCR2 / Fold change vs veh, DGCR2 / RFU, WDSUB1 / Fold change vs veh, WDSUB1 / Fold change vs veh, HSP90B1 /// MIR3652 / RFU, ADSS / Fold change vs veh, ADSS / RFU, GK / Fold change vs veh, GK / RFU, ZNF148 / Fold change vs veh, ZNF148 / RFU, TAF9 / Fold change vs veh, TAF9 / RFU, SLC1A5 / Fold change vs veh, SLC1A5 / RFU, SLMO2 / Fold change vs veh, SLMO2 / RFU, ABCC4 / Fold change vs veh, ABCC4 / RFU, LOC101060439 /// RAP1B / Fold change vs veh, LOC101060439 /// RAP1B / RFU, RFX7 / Fold change vs veh, RFX7 / RFU, GTPBP10 / Fold change vs veh, GTPBP10 / RFU, CNEP1R1 / Fold change vs veh, CNEP1R1 / RFU, BIVM-ERCC5 /// ERCC5 / Fold change vs veh, BIVM-ERCC5 /// ERCC5 / RFU, ILF3 / Fold change vs veh, ILF3 / RFU 11762660_at / Fold change /veh 11762660_at / RFU VCAN (11757783_s_at) / Fold change /veh VCAN (11757783_s_at) / RFU DDX43 (11728927_at) / Fold change /veh DDX43 (11728927_at) / RFU KRT8 (11758188_x_at) / Fold change /veh KRT8 (11758188_x_at) / RFU NKD1 (11759106_at) / Fold change /veh NKD1 (11759106_at) / RFU SRD5A1 (11742802_a_at) / Fold change /veh SRD5A1 (11742802_a_at) / RFU TPSAB1 /// TPSB2 (11721975_s_at) / Fold change /veh TPSAB1 /// TPSB2 (11721975_s_at) / RFU GSTM3 (11746129_a_at) / Fold change /veh GSTM3 (11746129_a_at) / RFU IL23R (11737362_x_at) / Fold change /veh IL23R (11737362_x_at) / RFU TMEM51 (11727254_a_at) / Fold change /veh TMEM51 (11727254_a_at) / RFU PIWIL2 (11732686_x_at) / Fold change /veh PIWIL2 (11732686_x_at) / RFU ORM1 (11744905_x_at) / Fold change /veh ORM1 (11744905_x_at) / RFU CCDC152 (11743942_at) / Fold change /veh CCDC152 (11743942_at) / RFU ECM1 (11717891_a_at) / Fold change /veh ECM1 (11717891_a_at) / RFU IL23R (11748794_a_at) / Fold change /veh IL23R (11748794_a_at) / RFU TNFAIP8L3 (11732012_x_at) / Fold change /veh TNFAIP8L3 (11732012_x_at) / RFU MBOAT4 (11741988_at) / Fold change /veh MBOAT4 (11741988_at) / RFU 11764193_at / Fold change /veh 11764193_at / RFU TMEM53 (11763286_at) / Fold change /veh TMEM53 (11763286_at) / RFU MAGEB2 (11727129_at) / Fold change /veh MAGEB2 (11727129_at) / RFU TMEM200A (11744735_a_at) / Fold change /veh TMEM200A (11744735_a_at) / RFU CCDC152 (11751479_a_at) / Fold change /veh CCDC152 (11751479_a_at) / RFU FAM211A (11726209_a_at) / Fold change /veh FAM211A (11726209_a_at) / RFU RGS16 (11746705_a_at) / Fold change /veh RGS16 (11746705_a_at) / RFU VCAN (11755009_s_at) / Fold change /veh VCAN (11755009_s_at) / RFU RHOB (11743442_s_at) / Fold change /veh RHOB (11743442_s_at) / RFU RGS16 (11720943_a_at) / Fold change /veh RGS16 (11720943_a_at) / RFU RGS16 (11720944_at) / Fold change /veh RGS16 (11720944_at) / RFU, VPS4B / Fold change vs veh, VPS4B / RFU, CREB1 / Fold change vs veh, CREB1 / RFU, DNAJC13 / Fold change vs veh, DNAJC13 / RFU, GNAQ / Fold change vs veh, GNAQ / RFU, CDK5R1 / Fold change vs veh, CDK5R1 / RFU, ZRANB3 / Fold change vs veh, ZRANB3 / RFU, CUL4A / Fold change vs veh, CUL4A / RFU, CCNY / Fold change vs veh, CCNY / RFU, UFL1 / Fold change vs veh, UFL1 / RFU, COG3 / Fold change vs veh, COG3 / RFU, DIAPH2 / Fold change vs veh, DIAPH2 / RFU, SKA2 / Fold change vs veh, SKA2 / RFU, AFF3 / Fold change vs veh, AFF3 / RFU, LMF1 / Fold change vs veh, LMF1 / RFU, IPO11 / Fold change vs veh, IPO11 / RFU, DFFB / Fold change vs veh, DFFB / RFU, FOXP1 / Fold change vs veh, FOXP1 / RFU, CARD8 / Fold change vs veh, CARD8 / RFU, STRN3 / Fold change vs veh, STRN3 / RFU, ADK / Fold change vs veh, ADK / RFU, RASSF2 / Fold change vs veh, RASSF2 / RFU, WIPF1 / Fold change vs veh, WIPF1 / RFU, LARP1B / Fold change vs veh, LARP1B / RFU, RASA1 / Fold change vs veh, RASA1 / RFU, RB1 / Fold change vs veh, RB1 / RFU, PPFIA1 / Fold change vs veh, PPFIA1 / RFU, MAT2A / Fold change vs veh, MAT2A / RFU, CCT5 / Fold change vs veh, CCT5 / RFU, WDR92 / Fold change vs veh, WDR92 / RFU, CUX1 / Fold change vs veh, CUX1 / RFU, TTC7A / Fold change vs veh, TTC7A / RFU, TMEM135 / Fold change vs veh, TMEM135 / RFU, DEPTOR / Fold change vs veh, DEPTOR / RFU, CPM / Fold change vs veh, CPM / RFU, DNAJB6 / Fold change vs veh, DNAJB6 / RFU, CACNA2D3 / Fold change vs veh, CACNA2D3 / RFU, DTX4 / Fold change vs veh, DTX4 / RFU, TFCP2 / Fold change vs veh, TFCP2 / RFU, GMCL1 /// GMCL1P1 / Fold change vs veh, GMCL1 /// GMCL1P1 / RFU, AEBP2 / Fold change vs veh, AEBP2 / RFU, SNHG1 /// SNORD22 /// SNORD25 /// SNORD26 /// SNORD27 /// SNORD28 /// SNORD29 /// SNORD31 / Fold change vs veh, SNHG1 /// SNORD22 /// SNORD25 /// SNORD26 /// SNORD27 /// SNORD28 /// SNORD29 /// SNORD31 / Fold change (Aza/veh), C12orf56 (ProbeSet 11735607_a_at) / Fold change (ACY-1035/veh), C12orf56 (ProbeSet 11735607_a_at) / Fold change (Aza/veh), FGFR1OP (ProbeSet 11751329_s_at) / Fold change (ACY-1035/veh), FGFR1OP (ProbeSet 11751329_s_at) / Fold change (Aza/veh), VPS36 (ProbeSet 11739960_a_at) / Fold change (ACY-1035/veh), VPS36 (ProbeSet 11739960_a_at) / RFU SYPL1 (11715823_x_at) / Fold change /veh SYPL1 (11715823_x_at) / RFU IGFBP7 (11715501_s_at) / Fold change /veh IGFBP7 (11715501_s_at) / RFU REEP3 (11722064_at) / Fold change /veh REEP3 (11722064_at) / RFU IGLL1 (11728026_x_at) / Fold change /veh IGLL1 (11728026_x_at): dose or concentration left out as unconfirmed
# Details: ProbeSet 11728879_at; LIST B
smiles,measurement,value
Nc1ncn([C@@H]2O[C@H](CO)[C@@H](O)[C@H]2O)c(=O)n1 [azacitidine],"RFU, PPP3R1",331.25 RFU
